Experimental data published in patent publication US12636316B2, “Pharmaceutical composition for preventing or treating myositis, comprising isolated mitochondria as active ingredient” (PAEAN BIOTECHNOLOGY INC., priority 2019, dated 2026).

Assay: Membrane potential of mitochondria (JC-1 dye)
Assay type: biochemical
Settings: 5 μg mitochondria mixed in 50 μL CCCP, room temperature 10 minutes, JC-1 2 μM
Description: In order to measure the membrane potential of the mitochondria isolated in Preparation Example 1, the mitochondrial protein concentration of the isolated mitochondria was quantified through the BCA to prepare 5 μg of mitochondria. The membrane potential of the mitochondria was measured using a JC-1 (molecular probes, cat no.1743159) dye.
Specifically, as an experimental group, 5 μg of the prepared mitochondria was mixed in 50 μL of PBS and then dispensed in a 96-well plate. In addition, as a control group, 50 μL of PBS without mitochondria was dispensed in a 96-well plate. In addition, as an additional experimental group, 5 μg of mitochondria was mixed in 50 μL of CCCP (R&D systems, CAS 555-60-2), then reacted at room temperature for 10 minutes, and then dispensed in a 96-well plate. In this case, CCCP is an ion transporter of mitochondria and depolarizes the membrane potential of mitochondria, thereby inhibiting the function of mitochondria.
Thereafter, each well was treated and reacted with the JC-1 dye so that the concentration was 2 μM, and then the absorbance was measured using a fluorescence microplate reader. […] The membrane potential of mitochondria was analyzed by calculating the ratio of […].

In the case of `N#CC(C#N)=NNc1cccc(Cl)c1` [CCCP], the membrane potential activity is reported as “low membrane potential activity”.
